Like-named read-outs stand apart in the source and are kept apart here.
Experiments:
[1] = test system: ear edema model in mice; experiment: Ear edema model; format: in vivo; conditions: Mus musculus, Croton oil (CO) as inducer, IP
From the text: (§1) Evaluation of the therapeutic effects of the novel PRS-211 compounds has now been carried out in a series of experimental systems to support the utility of these drugs as neuroprotectants, anti-inflammatory agents and anti-oxidative agents. These effects have been evaluated both in vitro and in vivo, and have been corroborated utilizing the following systems: • (a) Binding to the NMDA receptor linked channel: Non competitive antagonists of NMDA, the primary example of which is the compound MK-801, bind to a site within the NMDA receptor channel thus preventing the activation of the receptor-channel complex and the consequent neurotoxicity. The ability of various compounds to compete with the binding of tritium labeled MK-801 to brain membranes is considered a measure of their potency as NMDA non-competitive antagonists. • (b) Inhibition of prostaglandin production: The inhibitory effect of the new derivatives of Dexanabinol on prostaglandin synthesis is evaluated in macrophage cell cultures following LPS exposure to induce the inflammatory response. These assays are an indication of the anti-inflammatory activity of the individual analogs. • (c) Inhibition of Tumor Necrosis Factor Alpha: Specific aspects of the inflammatory response cascade are mediated by the cytokine TNFα. Inhibition of TNFα production and/or inhibition of TNFα release by the new analogs are assayed in macrophage cell cultures activated with LPS. This serves as another indication of the general anti-inflammatory potential of the novel compounds. • (d) Nitric Oxide Assay: As one aspect of the anti-oxidative potential of the novel analogs they were tested for their ability to inhibit the enzyme nitric oxide synthase (NOS). This assay can also serve as another indication of the anti-inflammatory cascade, as well as the anti-oxidative mechanisms. • (e) Ear Edema model: The anti-inflammatory activity of the new analogs is screened using an ear edema model in mice. This test system utilizes Croton oil or Arachidonic acid as inflammation inducers. The ability of the test compounds to prevent or diminish the inflammatory response to these stimulants is indicative of their systemic anti-inflammatory capability. • (f) Improved clinical outcome after closed head injury in rats: Severe head injury is associated with high mortality and severe neurological impairment. Animals subjected to head trauma in a controlled fashion serve as models in which to test drugs of therapeutic potential. Test compounds can be evaluated both for improved clinical outcome and for reduction of edema induced by closed head injury. The ability of compounds to reduce the severity of neurological symptoms and to reduce brain edema is considered a measure of their potency in reducing brain damage. • (g) Transient Middle cerebral artery occlusion (MCAo): The middle cerebral artery is the cerebral blood vessel most susceptible to stroke in humans. In animals, coagulation, permanent ligation or permanent placement of an occluding thread in the artery produces a permanent focal stroke affecting the MCA territory. Transient ligation or occlusion results in transient focal stroke. Both transient and permanent focal strokes result in varying degrees of edema and infarction in the affected brain regions. The ability of compounds to reduce the volumes of edema and infarction is considered a measure of their potential as anti-stroke treatment. • (h) Optic Nerve Crush: Application of mechanical pressure to the rat optical nerve results in crush injury of the axons, which is accompanied by immediate changes in oxidative metabolism and delayed axonal death and blindness. […]

[2] = test system: PGE2; experiment: Inhibition of prostaglandin synthesis (PGE2) in LPS-stimulated macrophage cell cultures; format: cell-based; conditions: LPS-stimulated macrophages
From the text: as §1

[3] = test system: Nitric Oxide Synthase (NOS); experiment: Inhibition of nitric oxide synthase (nitrite fluorimetric assay, LPS-stimulated macrophage cultures); format: cell-based; conditions: LPS-stimulated macrophages
From the text: as §1

[4] = test system: TNFα; experiment: Inhibition of TNFα in LPS-stimulated macrophage cell cultures (ELISA); format: cell-based; conditions: LPS-stimulated macrophages
From the text: as §1

[5] = test system: NMDA receptor; experiment: Radioligand binding: displacement of [3H]MK-801 from rat forebrain membranes; conditions: for NMDA receptor binding / affinity: MK-801 binding to membranes
From the text: as §1

[6] = test system: AMPA; experiment: Radioligand binding: inhibition of AMPA binding to membranes; design: species or system rat
[7] = test system: kainic acid; experiment: Radioligand binding: inhibition of kainic acid binding to membranes; design: species or system rat
[8] = even at doses several thousand times higher than the ED50 of HU-210; cited from earlier work
[9] = [3H]MK-801 binding, text to Figure 2, read-out: mean IC50
[10] = displacement of [3H]MK-801, rat forebrain membranes, read-out: NMDA BINDING IC50

Row | SMILES | ED50 [1] [µmol/kg] | inhibition at 10 µM [2] [%] | inhibition at 10 µM [3] [%] | inhibition at 10 µM [4] [%] | NMDA receptor binding / affinity [5] | IC50 [5, 9] [µM] | IC50 [5, 10] [µM] | inhibition of AMPA binding [6] | inhibition of kainic acid binding [7] | Ki ([5]; inhibition of [3H]MK-801 binding, read-out: inhibition constant (KI)) [µM] | cannabimimetic activity [8]
1 | CCCCCCC(C)(C)c1cc(O)c2c(c1)OC(C)(C)[C@H]1CC=C(Cn3ccnc3)C[C@H]21 (single isomer, unassigned) [211,095-000] | 29 | 72 | 14 | 11 | relatively high affinity | 2.5 | 2.5 | – | – | – | –
2 | CCCCCCC(C)(C)c1cc(O)c2c(c1)OC(C)(C)[C@H]1CC=C(CO)C[C@H]21 [211,007-000 HU-211, 1,1 dimethyl heptyl-(3 S,4S)-7-hydroxy-Δ^6-tetrahydrocannabinol, reference compound] | 25 | 54 | 20 | 33 | competes with the binding of MK-801 | 10 | 10 | unable to inhibit | unable to inhibit | 11 ± 1.3 | inactive
